# From patent US9833497B2, “Human originated EGF domain proteins and use of the same” (CHENGDU SOURCEBIO LIMITED-LIABILITY COMPANY, priority 2013, dated 2017)
# Experiments:
# Serratia marcescens = test: MIC against Gram-negative bacteria: Serratia marcescens; assay type: cell-based
# Method in brief: (§1)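 Two-fold serial dilutions of each purified human EGF domain protein, three replicate wells per level, were combined with bacteria at a final 5×10^5 CFU/mL in LB. Cultures were shaken at 175 rpm, 37° C. The MIC was taken as the minimum concentration preventing growth.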
# Enterobacter cloacae = test: MIC against Gram-negative bacteria: Enterobacter cloacae; assay type: cell-based
# Method in brief: as §1
# E. coli DH5α = test: Antibacterial activity: MIC and growth curve against E. coli DH5α in 96-well plate; assay type: cell-based; conditions: for MIC: minimal inhibitory concentration against E. coli DH5α, 96-well plate, 37° C., judged after 8 h
# Method in brief: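 MIC taken as lowest protein level with no bacterial growth, tracked by A600 every 30 min during 37 °C, 175 rpm culture. Two-fold protein series 50-12.5 μg/mL final, triplicate wells, against 5×10^5 CFU/mL of LB-washed mid-log cells.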
# Proteus vulgaris = test: MIC against Gram-negative bacteria: Proteus vulgaris; assay type: cell-based
# Method in brief: as §1
# Moraxella catarrhalis = test: MIC against Gram-negative bacteria: Moraxella catarrhalis; assay type: cell-based
# Method in brief: as §1
# Klebsiella pneumonia = test: MIC against Gram-negative bacteria: Klebsiella pneumonia; assay type: cell-based
# Method in brief: as §1
# E. coli BL21 = test: MIC against Gram-negative bacteria: E. coli BL21; assay type: cell-based; conditions: E. coli BL21
# Method in brief: as §1
# Pseudomonas aeruginosa = test: MIC against Gram-negative bacteria: Pseudomonas aeruginosa; assay type: cell-based
# Method in brief: as §1
# Citrobacter diversus = test: MIC against Gram-negative bacteria: Citrobacter diversus; assay type: cell-based
# Method in brief: as §1
# Aeromonas hydrophila = test: MIC against Gram-negative bacteria: Aeromonas hydrophila; assay type: cell-based
# Method in brief: as §1
# [1] = Silver staining detection of endotoxin (LPS) hydrolysis; assay type: biochemical; conditions: E. coli EH100 LPS incubated overnight with protein, FIG. 28
# Protocol: 1. The E. coli EH100 LPS (Sigma) samples were respectively incubated with the obtained human-originated EGF domain proteins (PRT1 to PRT1498 in Table 1) such as the recombination protein hF VII-EGF1, etc.; and the control group was the LPS sample incubated with TB S buffer. The incubation lasted overnight. Then, the centrifugation was performed to collect the pellet.
# 2. The 1×loading buffer for LPS (0.05 mol/L Tris-HCl, containing 10 g/L SDS, 100 g/L sucrose, 0.5% β-mercaptoethanol, 10 mg/L Bromophenol Blue, pH 6.8) was mixed with the sample of the treated pellet and incubated on a metal bath at 100° C. for 5 min.
# 3. 15% separating gel (containing 4 mol/L urea, Bio-Rad with a thickness of 1.0 mm, the detailed composition as follows: 1.15 mL of deionized water, 2.5 mL of 30% acrylamide, 1.3 mL of 1.5 mol/L Tris-HCl (pH 8.8, containing 10% SDS), 50 μl of 10% ammonium persulfate, 4 μl of TEMED) was mixed well and prepared. The top of the separating gel was overlaid with water.
# 4. 5% stacking gel was prepared as follows: 1.42 mL of deionized water, 0.33 mL of 30% acrylamide, 0.25 mL of 1 mol/L Tris-HCl (pH 6.8, containing 10% SDS), 20 μL of 10% ammonium persulfate, 2 μL of TEMED) were mixed well and poured. A ten-well comb was quickly inserted.
# 5. After the gel was prepared, the samples were loaded. Then, the gel was run at a voltage of 120 V to separate the samples. […]
# Proteus mirabilis = test: MIC against Gram-negative bacteria: Proteus mirabilis; assay type: cell-based
# Method in brief: as §1
# [2] = Serratia marcescens, 96-well plate, 5×10^5 CFU/mL, 37° C., 10 h
# [3] = Enterobacter cloacae, 96-well plate, 5×10^5 CFU/mL, 37° C., 10 h
# [4] = Proteus vulgaris, 96-well plate, 5×10^5 CFU/mL, 37° C., 10 h
# [5] = Moraxella catarrhalis, 96-well plate, 5×10^5 CFU/mL, 37° C., 10 h
# [6] = Klebsiella pneumonia, 96-well plate, 5×10^5 CFU/mL, 37° C., 10 h
# [7] = 96-well plate, 5×10^5 CFU/mL, 37° C., 10 h
# [8] = Pseudomonas aeruginosa, 96-well plate, 5×10^5 CFU/mL, 37° C., 10 h
# [9] = Citrobacter diversus, 96-well plate, 5×10^5 CFU/mL, 37° C., 10 h
# [10] = Aeromonas hydrophila, 96-well plate, 5×10^5 CFU/mL, 37° C., 10 h
# [11] = Proteus mirabilis, 96-well plate, 5×10^5 CFU/mL, 37° C., 10 h
substance,measurement,setting,value
"hF VII-EGF1: human coagulation factor VII-EGF1 domain protein, molecular weight about 3.9 kD, recombinant, released from RFP fusion by rTEV (DGDQCASSPCQNGGSCKDQLQSYICFCLPAFEGRNCE; listed as Homo sapiens)",MIC (μg/mL) S. marcescens,Serratia marcescens; [2],12.5 µg/mL
same,MIC (μg/mL) E. cloacae,Enterobacter cloacae; [3],12.5 µg/mL
same,MIC (minimal inhibitory concentration),"E. coli DH5α; E. coli DH5α, 5×10^5 CFU/mL, after 8 h of cultivation at 37° C.",12.5 µg/mL
same,inhibitory effect on the growth of E. coli DH5α,"E. coli DH5α; growth curve (OD 600 nm), FIG. 27 / Table 2",significant inhibitory effect
same,MIC,E. coli DH5α; 5×10^5 CFU/mL,12.5 µg/mL
same,MIC (μg/mL) P. vulgaris,Proteus vulgaris; [4],12.5 µg/mL
same,MIC (μg/mL) M. catarrhalis,Moraxella catarrhalis; [5],25 µg/mL
same,MIC (μg/mL) K. pneumonia,Klebsiella pneumonia; [6],25 µg/mL
same,MIC (μg/mL) E. coli BL21,E. coli BL21; [7],12.5 µg/mL
same,MIC (μg/mL) P. aeruginosa,Pseudomonas aeruginosa; [8],25 µg/mL
same,MIC (μg/mL) C. diversus,Citrobacter diversus; [9],12.5 µg/mL
same,MIC (μg/mL) A. hydrophila,Aeromonas hydrophila; [10],12.5 µg/mL
same,hydrolysis of LPS (LPS band in silver staining),[1],eliminates the majority of LPS
same,MIC (μg/mL) P. mirabilis,Proteus mirabilis; [11],25 µg/mL
PRT1197 (DIDECAAKMHYCHANTVCVNLPGLYRCDCVPGYIRVDDFSCT; listed as Homo sapiens),MIC against S. marcescens,Serratia marcescens; [2],25 µg/mL
same,MIC against E. cloacae,Enterobacter cloacae; [3],12.5 µg/mL
same,MIC,E. coli DH5α; 5×10^5 CFU/mL,25 µg/mL
same,MIC against P. vulgaris,Proteus vulgaris; [4],50 µg/mL
same,MIC against M. catarrhalis,Moraxella catarrhalis; [5],12.5 µg/mL
same,MIC against K. pneumonia,Klebsiella pneumonia; [6],50 µg/mL
same,MIC against E. coli BL21,E. coli BL21; [7],12.5 µg/mL
same,MIC against P. aeruginosa,Pseudomonas aeruginosa; [8],25 µg/mL
same,MIC against C. diversus,Citrobacter diversus; [9],25 µg/mL
same,MIC against A. hydrophila,Aeromonas hydrophila; [10],50 µg/mL
same,MIC against P. mirabilis,Proteus mirabilis; [11],25 µg/mL
PRT1006 (PLSSCQKAALSQGIDVSSLCHNGGLCVDSGPSYFCHCPPGFQGSLCQ; listed as Homo sapiens),MIC,"Serratia marcescens; S. marcescens, 10 h cultivation at 37° C.",25 µg/mL
same,MIC,"Enterobacter cloacae; E. cloacae, 10 h cultivation at 37° C.",12.5 µg/mL
same,MIC,E. coli DH5α; 5×10^5 CFU/mL,12.5 µg/mL
same,MIC,"Proteus vulgaris; P. vulgaris, 10 h cultivation at 37° C.",50 µg/mL
same,MIC,"Moraxella catarrhalis; M. catarrhalis, 10 h cultivation at 37° C.",12.5 µg/mL
same,MIC,"Klebsiella pneumonia; K. pneumonia, 10 h cultivation at 37° C.",50 µg/mL
same,MIC,E. coli BL21; 10 h cultivation at 37° C.,50 µg/mL
same,MIC,"Pseudomonas aeruginosa; P. aeruginosa, 10 h cultivation at 37° C.",12.5 µg/mL
same,MIC,"Citrobacter diversus; C. diversus, 10 h cultivation at 37° C.",25 µg/mL
same,MIC,"Aeromonas hydrophila; A. hydrophila, 10 h cultivation at 37° C.",50 µg/mL
same,MIC,"Proteus mirabilis; P. mirabilis, 10 h cultivation at 37° C.",25 µg/mL
